# Test results from the supplement of paper PMC6411743.
# Compound: Nc1ncnc2c1ncn2[C@@H]1O[C@H](COP(=O)(O)OP(=O)(O)OP(=O)(O)O)[C@@H](O)[C@H]1O [adenosine triphosphate]
# Assay: pEC50 of ATP-induced change in protein thermal stability (2D-TPP)
# How it was run: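 Each of three independent experiments used Jurkat crude lysate given five concentrations including vehicle (10 min, room temperature), followed by 3 min at one of 12 temperatures from 42 to 63.9 °C and NP40 with benzonase (60 min, 4 °C). TMT LC-MS/MS quantified soluble protein after ultracentrifugation, expressed as fold changes against vehicle at each temperature with median normalisation. For pEC50, dose-response curves were fitted per replicate over adjacent temperature pairs, and hits were called through permutation-based false discovery rate control.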
# 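Also: lysate dosed with Na-ATP at 0 0.005 0.05 0.5 and 2 mM.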
# Chain of UniProt O14656 (O14656 whole entry): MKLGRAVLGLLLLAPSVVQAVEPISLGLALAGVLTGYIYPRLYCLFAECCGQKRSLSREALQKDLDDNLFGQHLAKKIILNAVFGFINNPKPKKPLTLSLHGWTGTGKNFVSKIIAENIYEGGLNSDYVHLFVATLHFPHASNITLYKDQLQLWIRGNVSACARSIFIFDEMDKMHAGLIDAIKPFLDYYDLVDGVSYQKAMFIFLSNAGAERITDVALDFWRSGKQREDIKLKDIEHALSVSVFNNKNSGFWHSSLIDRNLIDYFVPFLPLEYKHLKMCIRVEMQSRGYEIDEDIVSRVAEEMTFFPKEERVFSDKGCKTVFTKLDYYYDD
# Chain of UniProt Q13200 (Q13200 whole entry): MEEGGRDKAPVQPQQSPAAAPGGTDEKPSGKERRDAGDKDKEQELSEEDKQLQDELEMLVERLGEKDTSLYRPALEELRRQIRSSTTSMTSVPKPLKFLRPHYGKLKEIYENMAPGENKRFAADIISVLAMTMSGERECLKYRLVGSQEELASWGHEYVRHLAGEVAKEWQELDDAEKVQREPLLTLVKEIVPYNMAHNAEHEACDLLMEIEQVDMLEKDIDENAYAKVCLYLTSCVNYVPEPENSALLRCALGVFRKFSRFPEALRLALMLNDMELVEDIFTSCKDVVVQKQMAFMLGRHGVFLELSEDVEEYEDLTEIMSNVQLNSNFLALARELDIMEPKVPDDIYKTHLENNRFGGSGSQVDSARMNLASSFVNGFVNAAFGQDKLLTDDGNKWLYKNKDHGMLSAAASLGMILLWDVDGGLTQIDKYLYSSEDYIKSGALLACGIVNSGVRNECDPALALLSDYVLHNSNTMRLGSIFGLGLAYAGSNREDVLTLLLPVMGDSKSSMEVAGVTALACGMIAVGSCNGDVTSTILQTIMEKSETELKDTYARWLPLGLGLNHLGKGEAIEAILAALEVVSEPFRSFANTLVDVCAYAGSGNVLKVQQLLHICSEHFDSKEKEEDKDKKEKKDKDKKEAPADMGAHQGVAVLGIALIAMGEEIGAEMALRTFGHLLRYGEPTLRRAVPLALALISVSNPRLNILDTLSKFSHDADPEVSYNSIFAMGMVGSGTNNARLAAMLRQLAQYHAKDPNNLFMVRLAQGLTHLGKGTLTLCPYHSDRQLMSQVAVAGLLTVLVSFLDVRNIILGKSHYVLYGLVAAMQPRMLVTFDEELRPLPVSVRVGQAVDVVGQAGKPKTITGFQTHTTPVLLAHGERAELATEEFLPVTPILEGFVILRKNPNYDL
# Chain of UniProt Q86V88 (Q86V88 whole entry): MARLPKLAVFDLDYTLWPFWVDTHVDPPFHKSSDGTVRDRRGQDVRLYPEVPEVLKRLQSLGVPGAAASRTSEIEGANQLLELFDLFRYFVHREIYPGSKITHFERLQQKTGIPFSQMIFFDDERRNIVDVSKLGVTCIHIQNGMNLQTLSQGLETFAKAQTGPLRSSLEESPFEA
# Chain of UniProt P48643 (P48643 whole entry): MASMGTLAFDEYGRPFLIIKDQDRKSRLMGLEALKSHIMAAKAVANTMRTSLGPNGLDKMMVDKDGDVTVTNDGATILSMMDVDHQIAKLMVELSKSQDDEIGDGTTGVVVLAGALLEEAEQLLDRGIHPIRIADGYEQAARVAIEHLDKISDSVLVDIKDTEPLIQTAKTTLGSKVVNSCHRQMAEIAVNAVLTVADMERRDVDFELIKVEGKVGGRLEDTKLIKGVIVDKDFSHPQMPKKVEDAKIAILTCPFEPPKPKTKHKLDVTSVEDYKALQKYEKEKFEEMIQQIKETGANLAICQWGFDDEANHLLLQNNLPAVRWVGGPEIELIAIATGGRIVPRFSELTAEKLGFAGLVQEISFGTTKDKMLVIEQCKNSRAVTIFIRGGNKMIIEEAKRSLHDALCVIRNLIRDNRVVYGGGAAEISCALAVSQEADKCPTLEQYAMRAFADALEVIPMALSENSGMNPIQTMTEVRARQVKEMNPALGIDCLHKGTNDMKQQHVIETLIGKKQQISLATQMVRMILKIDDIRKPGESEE
# Chain of UniProt Q13885 (Q13885 whole entry): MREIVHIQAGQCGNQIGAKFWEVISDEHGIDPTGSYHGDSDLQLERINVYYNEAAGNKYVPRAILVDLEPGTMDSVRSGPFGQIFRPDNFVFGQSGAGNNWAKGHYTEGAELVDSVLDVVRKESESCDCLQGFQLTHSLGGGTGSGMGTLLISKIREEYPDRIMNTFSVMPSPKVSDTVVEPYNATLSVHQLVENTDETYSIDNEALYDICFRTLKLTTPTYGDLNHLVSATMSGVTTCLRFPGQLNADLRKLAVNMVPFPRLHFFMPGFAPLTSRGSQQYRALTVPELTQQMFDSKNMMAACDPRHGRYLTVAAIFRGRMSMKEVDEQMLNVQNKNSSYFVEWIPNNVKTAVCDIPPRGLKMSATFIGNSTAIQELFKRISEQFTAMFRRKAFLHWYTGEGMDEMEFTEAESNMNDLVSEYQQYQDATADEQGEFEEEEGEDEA
# Chain of UniProt P16278 (P16278 whole entry): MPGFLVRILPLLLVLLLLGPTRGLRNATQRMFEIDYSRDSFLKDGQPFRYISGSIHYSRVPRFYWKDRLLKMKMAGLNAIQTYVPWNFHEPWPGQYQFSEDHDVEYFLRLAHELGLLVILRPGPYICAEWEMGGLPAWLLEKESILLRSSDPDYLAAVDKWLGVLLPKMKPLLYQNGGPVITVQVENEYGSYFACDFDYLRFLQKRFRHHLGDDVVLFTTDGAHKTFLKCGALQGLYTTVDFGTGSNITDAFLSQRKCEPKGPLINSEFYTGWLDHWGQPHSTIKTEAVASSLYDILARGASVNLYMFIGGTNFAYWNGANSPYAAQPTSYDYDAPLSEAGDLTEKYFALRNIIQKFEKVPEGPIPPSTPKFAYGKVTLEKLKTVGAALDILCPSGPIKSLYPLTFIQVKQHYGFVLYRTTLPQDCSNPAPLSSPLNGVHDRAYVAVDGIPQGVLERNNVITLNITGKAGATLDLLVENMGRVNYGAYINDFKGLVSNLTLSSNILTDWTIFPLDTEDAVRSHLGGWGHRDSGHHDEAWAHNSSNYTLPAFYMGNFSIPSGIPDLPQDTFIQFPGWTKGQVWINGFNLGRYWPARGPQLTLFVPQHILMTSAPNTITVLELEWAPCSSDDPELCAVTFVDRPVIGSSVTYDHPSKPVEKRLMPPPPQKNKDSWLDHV
# Chain of UniProt Q06609 (Q06609 whole entry): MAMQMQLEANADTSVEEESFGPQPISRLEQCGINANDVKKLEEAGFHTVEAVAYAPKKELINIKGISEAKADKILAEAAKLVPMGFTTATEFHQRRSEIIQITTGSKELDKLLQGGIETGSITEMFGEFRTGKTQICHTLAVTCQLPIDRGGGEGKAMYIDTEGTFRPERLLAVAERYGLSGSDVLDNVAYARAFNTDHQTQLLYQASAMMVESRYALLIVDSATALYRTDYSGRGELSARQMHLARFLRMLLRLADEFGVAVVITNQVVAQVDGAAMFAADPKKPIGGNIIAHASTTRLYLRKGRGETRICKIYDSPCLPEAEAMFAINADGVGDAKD
# Chain of UniProt Q9HB40 (Q9HB40 whole entry): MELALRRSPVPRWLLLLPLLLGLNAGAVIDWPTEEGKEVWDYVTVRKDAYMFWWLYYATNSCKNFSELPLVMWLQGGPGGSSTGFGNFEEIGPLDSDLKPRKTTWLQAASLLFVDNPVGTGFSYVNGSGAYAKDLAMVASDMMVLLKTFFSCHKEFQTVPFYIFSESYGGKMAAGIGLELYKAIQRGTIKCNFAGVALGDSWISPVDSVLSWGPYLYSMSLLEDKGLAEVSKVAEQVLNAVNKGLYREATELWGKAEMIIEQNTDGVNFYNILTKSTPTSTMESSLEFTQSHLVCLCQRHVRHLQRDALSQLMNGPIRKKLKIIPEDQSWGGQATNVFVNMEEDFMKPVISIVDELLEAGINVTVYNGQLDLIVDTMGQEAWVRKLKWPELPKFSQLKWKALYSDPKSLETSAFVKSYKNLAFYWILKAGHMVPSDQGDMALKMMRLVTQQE
# Chain of UniProt P12004 (P12004 whole entry): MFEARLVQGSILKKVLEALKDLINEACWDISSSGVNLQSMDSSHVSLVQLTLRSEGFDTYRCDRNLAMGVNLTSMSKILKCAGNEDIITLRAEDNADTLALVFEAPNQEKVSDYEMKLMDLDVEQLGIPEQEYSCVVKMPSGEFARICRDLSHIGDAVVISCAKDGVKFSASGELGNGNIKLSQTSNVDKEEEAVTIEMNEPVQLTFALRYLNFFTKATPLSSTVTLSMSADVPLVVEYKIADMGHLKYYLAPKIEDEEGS
# Chain of UniProt Q6PIW4 (Q6PIW4 whole entry): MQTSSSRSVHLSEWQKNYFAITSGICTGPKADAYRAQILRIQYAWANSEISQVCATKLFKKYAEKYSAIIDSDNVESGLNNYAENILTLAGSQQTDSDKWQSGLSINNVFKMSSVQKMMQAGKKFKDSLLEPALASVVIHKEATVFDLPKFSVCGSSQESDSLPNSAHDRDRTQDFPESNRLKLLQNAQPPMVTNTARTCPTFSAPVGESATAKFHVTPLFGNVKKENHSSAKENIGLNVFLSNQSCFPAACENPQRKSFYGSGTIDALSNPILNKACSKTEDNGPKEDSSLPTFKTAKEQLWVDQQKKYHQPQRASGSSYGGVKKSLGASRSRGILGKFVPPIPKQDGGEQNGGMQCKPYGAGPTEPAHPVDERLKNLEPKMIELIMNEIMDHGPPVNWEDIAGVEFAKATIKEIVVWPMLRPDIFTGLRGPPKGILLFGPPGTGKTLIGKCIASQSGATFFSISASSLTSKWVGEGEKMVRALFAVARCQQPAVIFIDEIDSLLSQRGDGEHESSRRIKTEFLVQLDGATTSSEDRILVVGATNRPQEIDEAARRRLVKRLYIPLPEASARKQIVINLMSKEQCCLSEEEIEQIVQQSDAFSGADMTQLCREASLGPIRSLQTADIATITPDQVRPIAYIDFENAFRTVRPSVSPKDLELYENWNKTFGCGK
# Chain of UniProt Q96A26 (Q96A26 whole entry): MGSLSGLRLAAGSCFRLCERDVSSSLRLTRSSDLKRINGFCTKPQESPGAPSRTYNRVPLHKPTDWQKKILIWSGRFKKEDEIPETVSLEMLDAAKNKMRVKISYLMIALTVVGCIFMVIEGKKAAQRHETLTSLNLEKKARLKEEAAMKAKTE
row,Target,pEC50
1,UniProt P62277 (effect direction: destabilized),3.88
2,NUMB (effect direction: stabilized) (UniProt P49757),3.45
3,TUBB3 (effect direction: stabilized) (UniProt Q13509),3.69
4,MRPL2 (effect direction: destabilized) (UniProt Q5T653),3.46
5,PGM1 (effect direction: destabilized) (UniProt P36871),< 2.7
6,UniProt Q7Z3D6 (effect direction: destabilized),2.79
7,COPS5 (effect direction: stabilized) (UniProt Q92905),< 2.7
8,SPATA5 (effect direction: stabilized) (UniProt Q8NB90),2.96
9,A0AVT1 (effect direction: stabilized),4.35
10,RAD51 (effect direction: stabilized) (UniProt Q06609),3.65
11,ASS1 (effect direction: stabilized) (UniProt P00966),3.66
12,ZNF148 (effect direction: stabilized) (UniProt Q9UQR1),2.88
13,SARS2 (effect direction: stabilized) (UniProt Q9NP81),3.43
14,YARS2 (effect direction: stabilized) (UniProt Q9Y2Z4),3.97
15,NPM1 (effect direction: stabilized) (UniProt P06748),2.88
16,GAPDH (effect direction: stabilized) (UniProt P04406),< 2.7
17,FAM162A (effect direction: destabilized) (UniProt Q96A26),3.13
18,UniProt P62753 (effect direction: destabilized),3.15
19,UniProt Q8N4C8 (effect direction: stabilized),3.74
20,ST13 (effect direction: stabilized) (UniProt P50502),3.1
21,RPS2 (effect direction: destabilized) (UniProt P15880),3.82
22,UniProt O43314 (effect direction: stabilized),4.16
23,RAPGEF1 (effect direction: destabilized) (UniProt Q13905),2.88
24,TOR1A (effect direction: stabilized) (UniProt O14656),4.09

row,Target,pEC50
1,UniProt Q147X3 (effect direction: stabilized),2.88
2,CCNB2 (effect direction: stabilized) (UniProt O95067),4.13
3,KIF11 (effect direction: stabilized) (UniProt P52732),3.26
4,AGK (effect direction: stabilized) (UniProt Q53H12),2.97
5,CBWD1 (effect direction: stabilized) (UniProt Q9BRT8),2.96
6,DRAP1 (effect direction: destabilized) (UniProt Q14919),< 2.7
7,UBA5 (effect direction: stabilized) (UniProt Q9GZZ9),3.81
8,PSMD1 (effect direction: stabilized) (UniProt Q99460),4.35
9,TSEN34 (effect direction: stabilized) (UniProt Q9BSV6),< 2.7
10,MOV10 (effect direction: destabilized) (UniProt Q9HCE1),3.24
11,ANP32A (effect direction: stabilized) (UniProt P39687),< 2.7
12,FNTA (effect direction: stabilized) (UniProt P49354),3.22
13,GLB1 (effect direction: stabilized) (UniProt P16278),3.35
14,RPL34 (effect direction: destabilized) (UniProt P49207),4.92
15,CHD1 (effect direction: stabilized) (UniProt O14646),< 2.7
16,FH (effect direction: stabilized) (UniProt P07954),3.08
17,FIGNL1 (effect direction: stabilized) (UniProt Q6PIW4),3.82
18,RNF20 (effect direction: stabilized) (UniProt Q5VTR2),< 2.7
19,MDP1 (effect direction: destabilized) (UniProt Q86V88),< 2.7
20,CCT5 (effect direction: stabilized) (UniProt P48643),3.02
21,ETFA (effect direction: stabilized) (UniProt P13804),< 2.7
22,UniProt Q92918 (effect direction: stabilized),3.83
23,CDC40 (effect direction: destabilized) (UniProt O60508),3.22
24,UniProt P62191 (effect direction: stabilized),4.55

row,Target,pEC50
1,EIF3L (effect direction: stabilized) (UniProt Q9Y262),< 2.7
2,CLCN7 (effect direction: stabilized) (UniProt P51798),3.4
3,RPL27A (effect direction: destabilized) (UniProt P46776),3.2
4,PSMD2 (effect direction: stabilized) (UniProt Q13200),3.96
5,WDR1 (effect direction: stabilized) (UniProt O75083),< 2.7
6,UniProt Q02750 (effect direction: stabilized),4.06
7,PATL1 (effect direction: stabilized) (UniProt Q86TB9),2.83
8,AMPD3 (effect direction: stabilized) (UniProt Q01432),2.95
9,AIP (effect direction: stabilized) (UniProt O00170),< 2.7
10,UniProt Q13885 (effect direction: stabilized),3.12
11,UniProt P62826 (effect direction: destabilized),3.01
12,SDAD1 (effect direction: destabilized) (UniProt Q9NVU7),< 2.7
13,ROCK1 (effect direction: stabilized) (UniProt Q13464),2.77
14,PUS1 (effect direction: stabilized) (UniProt Q9Y606),2.99
15,NCAPH (effect direction: stabilized) (UniProt Q15003),3.5
16,UniProt Q86U38 (effect direction: stabilized),< 2.7
17,FARSB (effect direction: stabilized) (UniProt Q9NSD9),3.16
18,MRPS23 (effect direction: destabilized) (UniProt Q9Y3D9),3.89
19,PCNA (effect direction: stabilized) (UniProt P12004),< 2.7
20,PLEKHA1 (effect direction: stabilized) (UniProt Q9HB21),3.32
21,SCPEP1 (effect direction: stabilized) (UniProt Q9HB40),3.37
22,RACGAP1 (effect direction: stabilized) (UniProt Q9H0H5),3.69
23,PDCD2 (effect direction: stabilized) (UniProt Q16342),3.06
24,IRAK4 (effect direction: stabilized) (UniProt Q9NWZ3),3.3
